Assays:
[1] = ICH test protocol storage stability; assay type: physicochemical; settings: argon headspace, 6 months
[2] = Accelerated storage stability studies, purity by HPLC; assay type: physicochemical
Procedure: Samples “a” were placed in glass bottles and sealed in a Marvel seal bag under an argon head space, all air having been removed. These were stored at a temperature of 40±2° C. and relative humidity of 75±2%. Samples “b” were similarly packaged and sealed under argon headspace, but stored at 25±2° C. and 60±5% relative humidity. Samples “c” were similarly packaged and sealed under argon headspace, but stored at 5±3° C. Samples “e”, comparative standards, were similarly packaged and sealed under argon headspace, but stored at −20±5° C.
Samples “d” and “f” were placed in glass bottles, but without a marvel seal bag, and stored under air headspace −20±5° C. (samples “d”) and 40±2° C. and relative humidity of 75±2% (samples “f”).
Samples stored at elevated or reduced temperatures were brought to room temperature just prior to sample preparation.
Purity determinations were conducted by High Performance Liquid Chromatography (HPLC), using a Waters Sunfire C18 HPLC Column, 250 by 4.6 mm, with a quaternary or binary HPLC pump, a variable wavelength or photo diode array UV/visible detector set to 252 nm, and an autosampler. Water (degassed) and acetonitrile (degassed) were used as the mobile phase. The column temperature was 25° C., the flow rate 2.0 mL/min with an injection volume of 100 μL and a run time of 60 minutes.

SMILES: C[C@H](/C=C/[C@H](C)C(C)(C)O)[C@H]1CC[C@H]2/C(=C/C=C3C[C@@H](O)C[C@H](O)C3)CCC[C@]12C [Paricalcitol, 1α,25-dihydroxy-19-nor-vitamin D2]
- change in purity on storage ([1]; 5±3° C.): no reduction in purity
- change in purity on storage ([1]; −20±5° C.): no reduction in purity
- change in purity on storage ([2]; air headspace, 1 month, 40±2° C., 75%±2% relative humidity, paricalcitol of at least 99.9% purity): no reduction in purity
- change in purity on storage ([2]; argon headspace, 5 months, 40±2° C., 75±2% relative humidity): no reduction in purity
- purity after storage ([2]; samples a: argon headspace, 40±2° C., 75±2% relative humidity, 1 month): 99.9%
- purity after storage ([2]; samples a: argon headspace, 40±2° C., 75±2% relative humidity, 5 months): 99.9%
- purity after storage ([2]; samples b: argon headspace, 25±2° C., 60±5% relative humidity, 1 month): 99.9%
- purity after storage ([2]; samples b: argon headspace, 25±2° C., 60±5% relative humidity, 5 months): 99.8%
- purity after storage ([2]; samples c: argon headspace, 5±3° C., 1 month): 99.9%
- purity after storage ([2]; samples c: argon headspace, 5±3° C., 2 months): 99.9%
- purity after storage ([2]; samples c: argon headspace, 5±3° C., 5 months): 99.9%
- purity after storage ([2]; samples d: air headspace, −20±5° C., 1 month): 99.9%
- purity after storage ([2]; samples d: air headspace, −20±5° C., 5 months): 99.9%
- purity after storage ([2]; samples e: argon headspace, −20±5° C., 1 month): 99.9%
- purity after storage ([2]; samples e: argon headspace, −20±5° C., 2 months): 99.9%
- purity after storage ([2]; samples e: argon headspace, −20±5° C., 5 months): 99.9%
- purity after storage ([2]; samples f: air headspace, 40±2° C., 75±2% relative humidity, 1 month): 99.9%

— patent publication US8013176B2, “Paricalcitol purification” (Alphora Research Inc., priority 2008, dated 2011)
